Experimental findings from patent US7858125B2, “Multi-component biocide composition for wood protection” (priority 2006, dated 2010) are described below.

The test system of one experiment is P. chrysogenum. Briefly: Mold resistance of treated wood stakes (ASTM D4445-91), P. chrysogenum. The class given is cell-based, Penicillium chrysogenum PH02. How it is done:
(§1) The biocide compositions were first tested for the efficacy in preventing mold fungal growth. […] The mold fungi were first prepared by growing the various mold fungi species on 2% malt agar. […] Spore suspensions were transferred to a spray bottle and diluted to 100 milliliters with DI water. The spray bottle was adjusted to deliver 1 milliliter inoculum/spray.
(§2) The biocide compositions were tested for the efficacy in preventing mold fungal growth and compared to the abilities of the commercially used preservatives, fungicides, extracts, and pharmaceuticals in preventing mold fungal growth.
(§3) Specimens (7×20 millimeters cross section by 7 centimeters long) were cut from unseasoned southern yellow pine mill ends from a Mississippi sawmill and stored at 0° C. […] Southern yellow pine oriented strand board (OSB) specimens (11×20 millimeters cross section by 7 centimeters long) were cut from a full sheet of OSB and conditioned to 70% relative humidity. […] Untreated stakes were dipped in DI water and served as Control A for water-based test chemicals. […]
(§4) The biocide compositions were first tested for the efficacy in preventing mold fungal growth. […]

The test system of another experiment is T. viride. Briefly: Mold resistance of treated wood stakes (ASTM D4445-91), T. viride. It is filed as cell-based, Trichoderma viride ATCC 20476. How it is done: as §1, §2, §3, §4
A further experiment deals with A. niger. The experiment is described as follows: Mold resistance of treated wood stakes (ASTM D4445-91), A. niger. The class given is cell-based, Aspergillus niger 2.242. How it is done:
as §1, §2, §3, §4

Setting [1] is: Example 2, dip-treated unseasoned southern yellow pine, 4 weeks, scale 0-5 (5 = 100% coverage).

Like-named read-outs stand apart in the source and are kept apart here.

Turning to `O=C([O-])c1ccccc1.[Na+]` [Sample 13, Sodium benzoate], the “Mold Resistance Average Rating, P. chrysogenum” value in the experiment with P. chrysogenum (setting [1]) is 2.4. In addition, the “Mold Resistance Average Rating, T. viride” value with T. viride (setting [1]) was 3.1. Moreover, in the experiment with A. niger (setting [1]), the “Mold Resistance Average Rating, A. niger” value turned out to be 2.9.
For `C[C@@H](c1ncncc1F)[C@](O)(Cn1cncn1)c1ccc(F)cc1F` [Sample 44, Voriconazole] the same measures were 0.0, 0.1 and 0.0.
For `CC(C)c1cccc(O)c(=O)c1` [Sample 30, Thujaplicin (isopropyltropolone)], the “Mold Resistance Average Rating, P. chrysogenum” value in the experiment with P. chrysogenum (setting [1]) turned out to be 0.0. Besides, the “Mold Resistance Average Rating, T. viride” value with T. viride (setting [1]) was 0.0. In addition, the “Mold Resistance Average Rating, A. niger” value in the experiment on A. niger (setting [1]) was determined as 0.0.
Regarding `C[C@@H](c1ncncc1F)[C@](O)(Cn1cncn1)c1ccc(F)cc1F` [Sample 43, Voriconazole], the “Mold Resistance Average Rating, P. chrysogenum” value in the experiment on P. chrysogenum (setting [1]) worked out at 0.0. In addition, the “Mold Resistance Average Rating, T. viride” value in the experiment with T. viride (setting [1]) is reported as 0.4. The “Mold Resistance Average Rating, A. niger” value in the experiment with A. niger (setting [1]) is given as 0.1.
With `C/C=C/C=C/C(=O)[O-].[K+]` [Sample 24, Potassium sorbate], the “Mold Resistance Average Rating, P. chrysogenum” value in the experiment with P. chrysogenum is recorded as 1.7. Besides, the “Mold Resistance Average Rating, T. viride” value in the experiment on T. viride is on record as 0.0. Also, in the experiment on A. niger, the “Mold Resistance Average Rating, A. niger” value is 0.0.
`c1ccc2[nH]c(-c3cscn3)nc2c1` [Sample 45, Thiabendazole]: the “Mold Resistance Average Rating, P. chrysogenum” value in the experiment with P. chrysogenum (setting [1]) came to 0.0. The “Mold Resistance Average Rating, T. viride” value in the experiment with T. viride (setting [1]) was 2.5. Also, the “Mold Resistance Average Rating, A. niger” value with A. niger (setting [1]) stood at 0.0.
As to `C/C=C/C=C/C(=O)[O-].[K+]` [Sample 20, Potassium sorbate], the “Mold Resistance Average Rating, P. chrysogenum” value with P. chrysogenum is 5.0. In addition, the “Mold Resistance Average Rating, T. viride” value in the experiment on T. viride was found to be 4.9. Moreover, the “Mold Resistance Average Rating, A. niger” value in the experiment on A. niger amounted to 5.0.
In the case of `CCC(=O)[O-].CCC(=O)[O-].[Ca+2]` [Sample 18, Calcium propionate], the “Mold Resistance Average Rating, P. chrysogenum” value in the experiment with P. chrysogenum (setting [1]) came out at 5.0. The “Mold Resistance Average Rating, T. viride” value in the experiment on T. viride (setting [1]) was determined as 4.7. Moreover, the “Mold Resistance Average Rating, A. niger” value in the experiment with A. niger (setting [1]) is on record as 5.0.
Turning to `CCC(=O)[O-].CCC(=O)[O-].[Ca+2]` [Sample 17, Calcium propionate], the “Mold Resistance Average Rating, P. chrysogenum” value with P. chrysogenum (setting [1]) is listed as 4.9. In the experiment on T. viride (setting [1]), the “Mold Resistance Average Rating, T. viride” value is on record as 4.6. For the same molecule, the “Mold Resistance Average Rating, A. niger” value with A. niger (setting [1]) was determined as 5.0.
The matching figures for `C[C@@H](c1ncncc1F)[C@](O)(Cn1cncn1)c1ccc(F)cc1F` [Sample 41, Voriconazole]: 0.0, 2.4 and 0.0.
The matching figures for `O=C[O-].[Na+]` [Sample 26, Sodium formate]: 4.7, 4.1 and 5.0.
With `Clc1ccccc1C(c1ccccc1)(c1ccccc1)n1ccnc1` [Sample 40, Clotrimazole], in the experiment with P. chrysogenum (setting [1]), the “Mold Resistance Average Rating, P. chrysogenum” value is recorded as 3.4. The “Mold Resistance Average Rating, T. viride” value with T. viride (setting [1]) came to 3.7. Also, in the experiment on A. niger (setting [1]), the “Mold Resistance Average Rating, A. niger” value amounted to 5.0.
The matching figures for `O=C[O-].[Na+]` [Sample 25, Sodium formate]: 4.6, 4.3 and 5.0.
Regarding `CCC(=O)[O-].CCC(=O)[O-].[Ca+2]` [Sample 19, Calcium propionate], the “Mold Resistance Average Rating, P. chrysogenum” value in the experiment with P. chrysogenum (setting [1]) is 2.0. Also, the “Mold Resistance Average Rating, T. viride” value in the experiment with T. viride (setting [1]) was 3.3. For the same molecule, in the experiment with A. niger (setting [1]), the “Mold Resistance Average Rating, A. niger” value is listed as 0.9.
For `O=C([O-])c1ccccc1.[Na+]` [Sample 15, Sodium benzoate] the same measures were 0.0, 0.4 and 0.4.
For `C/C=C/C=C/C(=O)[O-].[K+]` [Sample 21, Potassium sorbate], in the experiment with P. chrysogenum, the “Mold Resistance Average Rating, P. chrysogenum” value amounted to 2.6. Moreover, the “Mold Resistance Average Rating, T. viride” value with T. viride worked out at 2.9. Besides, the “Mold Resistance Average Rating, A. niger” value with A. niger was 2.6.
Turning to `OC(Cn1cncn1)(Cn1cncn1)c1ccc(F)cc1F` [Sample 39, Difluconazole], in the experiment on P. chrysogenum (setting [1]), the “Mold Resistance Average Rating, P. chrysogenum” value is 4.7. Moreover, the “Mold Resistance Average Rating, T. viride” value in the experiment on T. viride (setting [1]) worked out at 5.0. Moreover, the “Mold Resistance Average Rating, A. niger” value with A. niger (setting [1]) is listed as 5.0.
As to `c1ccc2[nH]c(-c3cscn3)nc2c1` [Sample 47, Thiabendazole], the “Mold Resistance Average Rating, P. chrysogenum” value in the experiment on P. chrysogenum (setting [1]) is listed as 0.0. Besides, in the experiment on T. viride (setting [1]), the “Mold Resistance Average Rating, T. viride” value came to 0.0. Besides, the “Mold Resistance Average Rating, A. niger” value in the experiment on A. niger (setting [1]) came to 0.0.
With `C[C@@H](c1ncncc1F)[C@](O)(Cn1cncn1)c1ccc(F)cc1F` [Sample 42, Voriconazole], the “Mold Resistance Average Rating, P. chrysogenum” value in the experiment on P. chrysogenum (setting [1]) was found to be 0.0. The “Mold Resistance Average Rating, T. viride” value with T. viride (setting [1]) came to 1.3. The “Mold Resistance Average Rating, A. niger” value with A. niger (setting [1]) is 0.0.
In the case of `C/C=C/C=C/C(=O)[O-].[K+]` [Sample 23, Potassium sorbate], in the experiment on P. chrysogenum, the “Mold Resistance Average Rating, P. chrysogenum” value is recorded as 0.0. Besides, in the experiment on T. viride, the “Mold Resistance Average Rating, T. viride” value was 1.0. Further, the “Mold Resistance Average Rating, A. niger” value with A. niger worked out at 0.0.
`O=NO` [Sample 28, Sodium nitrite]: in the experiment with P. chrysogenum (setting [1]), the “Mold Resistance Average Rating, P. chrysogenum” value was 4.9. For the same molecule, in the experiment on T. viride (setting [1]), the “Mold Resistance Average Rating, T. viride” value worked out at 5.0. The “Mold Resistance Average Rating, A. niger” value in the experiment on A. niger (setting [1]) came to 5.0.
On to `O=C([O-])c1ccccc1.[Na+]` [Sample 16, Sodium benzoate], for which the “Mold Resistance Average Rating, P. chrysogenum” value with P. chrysogenum (setting [1]) stood at 0.0. For the same molecule, the “Mold Resistance Average Rating, T. viride” value with T. viride (setting [1]) was 0.7. In the experiment on A. niger (setting [1]), the “Mold Resistance Average Rating, A. niger” value is listed as 0.0.
Take `O=C([O-])c1ccccc1.[Na+]` [Sample 14, Sodium benzoate]: the “Mold Resistance Average Rating, P. chrysogenum” value in the experiment with P. chrysogenum (setting [1]) came to 0.0. Also, the “Mold Resistance Average Rating, T. viride” value in the experiment with T. viride (setting [1]) was determined as 1.0. In addition, the “Mold Resistance Average Rating, A. niger” value with A. niger (setting [1]) is recorded as 1.7.
For `c1ccc2[nH]c(-c3cscn3)nc2c1` [Sample 46, Thiabendazole] the same measures were 0.0, 0.0 and 0.0.
Regarding `C/C=C/C=C/C(=O)[O-].[K+]` [Sample 22, Potassium sorbate], in the experiment on P. chrysogenum, the “Mold Resistance Average Rating, P. chrysogenum” value was 0.0. Moreover, the “Mold Resistance Average Rating, T. viride” value in the experiment with T. viride stood at 0.7. Also, the “Mold Resistance Average Rating, A. niger” value in the experiment with A. niger is recorded as 0.0.
With `O=C[O-].[Na+]` [Sample 27, Sodium formate], the “Mold Resistance Average Rating, P. chrysogenum” value in the experiment with P. chrysogenum (setting [1]) came out at 3.3. The “Mold Resistance Average Rating, T. viride” value in the experiment with T. viride (setting [1]) was 4.0. Further, the “Mold Resistance Average Rating, A. niger” value with A. niger (setting [1]) is 4.7.
For `Clc1ccc(COC(Cn2ccnc2)c2ccc(Cl)cc2Cl)c(Cl)c1` (stereo not drawn) [Sample 34, Miconazole] the same measures were 0.0, 0.0 and 0.0.
For “Thujaplicin (isopropyltropolone) [Sample 29]” the same measures were 0.0, 1.0 and 5.0.
